Source: ChEMBL document CHEMBL1201862, “PubChem BioAssay data set” (2004)
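In this assay, cells in 96-well plates receive the compound at five concentrations for 48 hours. Endpoints are linearly interpolated between the surrounding concentrations. GI50: concentration for 50% inhibition of growth.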 The source made the active and inactive calls. Cut-off read from the data, not from the text of the source: active = GI50 up to about 1.1 µM and inactive = higher.

Key:
Assay in all cases: growth of human tumour cells (NCI), 48 h
[1] = test system: MOLT-4
[2] = test system: COLO 205
[3] = test system: OVCAR-8
[4] = test system: HCT-116
[5] = test system: KM12
[6] = test system: SF-295
[7] = test system: TK-10
[8] = test system: SK-MEL-28
[9] = test system: SF-539
[10] = test system: HCC 2998
[11] = test system: M14
[12] = test system: SNB-19
[13] = test system: A549
[14] = test system: K562
[15] = test system: SF-268
[16] = test system: SK-OV-3
[17] = test system: NCI-H226
[18] = test system: CAKI-1
[19] = test system: RPMI-8226

Measured: GI50

Cc1cc([N+](=O)[O-])ccc1Sc1c2ccccc2nc2ccccc12
inactive: [1] 15.7 µM | [2] 39.9 µM | [3] 29.1 µM | [4] 22.5 µM | [5] 18.5 µM | [6] 39.4 µM | [7] 57 µM | [8] > 100 µM | [9] 28.4 µM | [10] 25.4 µM | [11] 32.6 µM | [12] 45.5 µM | [13] 64.6 µM | [14] 32.1 µM | [15] 41 µM | [16] 31.3 µM | [17] > 100 µM | [18] 26.4 µM

COC(=O)[C@]1(C)CCC[C@]2(C)C3CC4OOC3(C=C4C(C)(C)O)CCC21 (stereo partly specified)
inactive: [1] 22.2 µM | [2] 69.8 µM | [3] 34.6 µM | [4] 31.8 µM | [5] 42.7 µM | [6] 95.9 µM | [7] > 100 µM | [19] 16.7 µM | [9] > 100 µM | [11] 31 µM | [12] > 100 µM | [13] 38.4 µM | [14] 21.9 µM | [15] 60.1 µM | [16] 76.7 µM | [17] 31.1 µM | [18] 64.6 µM

COc1ccc(/C(=C\c2cc(OC)c(OC)c(OC)c2)C(=O)O)cc1
inactive: [1] 27.5 µM | [2] 18.3 µM | [3] 33.5 µM | [4] 29 µM | [5] 25.4 µM | [6] 19.9 µM | [7] 87.9 µM | [8] 76.4 µM | [19] 27.4 µM | [9] 14.2 µM | [11] 26.6 µM | [12] 54.2 µM | [13] 40.1 µM | [14] 25.8 µM | [15] 51.6 µM | [17] 28.1 µM | [18] 30.4 µM

CCOC(=O)c1cc(=O)n(C)c(=O)n1C
inactive: [1] > 100 µM | [2] > 100 µM | [3] > 100 µM | [4] > 100 µM | [5] > 100 µM | [6] > 100 µM | [7] > 100 µM | [8] > 100 µM | [9] > 100 µM | [10] > 100 µM | [11] > 100 µM | [12] > 100 µM | [13] > 100 µM | [14] > 100 µM | [15] > 100 µM | [16] > 100 µM | [17] > 100 µM | [18] > 100 µM

COc1ccc(C(=O)O)c(Cc2ccc3ccccc3c2)c1
inactive: [1] > 100 µM | [2] > 100 µM | [3] > 100 µM | [4] > 100 µM | [5] > 100 µM | [6] > 100 µM | [7] > 100 µM | [8] > 100 µM | [19] > 100 µM | [9] > 100 µM | [11] > 100 µM | [12] > 100 µM | [13] > 100 µM | [14] > 100 µM | [15] > 100 µM | [16] > 100 µM | [17] > 100 µM | [18] > 100 µM

N#CC(C(=N/NC(N)=S)/C(=N/NC(N)=S)C(C#N)c1ccc(Cl)cc1)c1ccc(Cl)cc1 (stereo unspecified)
inactive: [1] 22.7 µM | [2] > 100 µM | [3] 53.8 µM | [4] > 100 µM | [5] > 100 µM | [6] > 100 µM | [7] > 100 µM | [8] 81.3 µM | [9] > 100 µM | [10] > 100 µM | [11] > 100 µM | [12] > 100 µM | [13] > 100 µM | [14] 34.9 µM | [15] > 100 µM | [16] > 100 µM | [17] > 100 µM

CCN(CC)C(=O)CCn1cc(F)c(=O)[nH]c1=O
inactive: [1] > 100 µM | [2] > 100 µM | [3] > 100 µM | [4] > 100 µM | [5] > 100 µM | [6] > 100 µM | [7] > 100 µM | [8] > 100 µM | [19] > 100 µM | [9] > 100 µM | [11] > 100 µM | [12] > 100 µM | [13] > 100 µM | [14] > 100 µM | [15] > 100 µM | [17] > 100 µM

CCCCCCCCCCCCCP(=O)(O)O
inactive: [2] > 100 µM | [3] > 100 µM | [4] > 100 µM | [5] > 100 µM | [6] > 100 µM | [7] > 100 µM | [8] > 100 µM | [9] > 100 µM | [10] > 100 µM | [11] > 100 µM | [12] 67.1 µM | [13] > 100 µM | [15] > 100 µM | [16] > 100 µM | [17] > 100 µM
